We go through 1 molecule from publication PMC4331650 (Biochimica et Biophysica Acta, 2014).

In test [1] the target is T1, F256A CLC-Ka (Homo sapiens, UniProt P51800, F256A).
T1 sequence (P51800 1-687 F256A): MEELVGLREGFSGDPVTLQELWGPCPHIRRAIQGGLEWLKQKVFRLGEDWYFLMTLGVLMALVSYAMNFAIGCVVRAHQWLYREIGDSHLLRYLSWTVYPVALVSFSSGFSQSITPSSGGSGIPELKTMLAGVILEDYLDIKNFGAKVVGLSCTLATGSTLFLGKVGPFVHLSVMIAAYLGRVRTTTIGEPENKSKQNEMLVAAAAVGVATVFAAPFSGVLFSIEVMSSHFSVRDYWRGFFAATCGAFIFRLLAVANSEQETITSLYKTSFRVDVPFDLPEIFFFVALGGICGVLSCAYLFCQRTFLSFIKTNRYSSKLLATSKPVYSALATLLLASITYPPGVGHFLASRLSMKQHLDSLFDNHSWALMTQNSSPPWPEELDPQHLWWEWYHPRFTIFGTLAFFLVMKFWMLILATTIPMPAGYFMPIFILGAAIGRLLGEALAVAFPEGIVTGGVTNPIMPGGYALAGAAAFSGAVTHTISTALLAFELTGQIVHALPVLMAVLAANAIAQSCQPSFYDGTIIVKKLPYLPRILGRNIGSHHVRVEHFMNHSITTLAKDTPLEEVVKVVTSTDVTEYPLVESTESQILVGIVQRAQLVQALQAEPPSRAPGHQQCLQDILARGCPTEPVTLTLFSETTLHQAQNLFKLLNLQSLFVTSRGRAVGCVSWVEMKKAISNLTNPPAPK
T1 sequence (Q8WZ55 1-320 Y98A partner): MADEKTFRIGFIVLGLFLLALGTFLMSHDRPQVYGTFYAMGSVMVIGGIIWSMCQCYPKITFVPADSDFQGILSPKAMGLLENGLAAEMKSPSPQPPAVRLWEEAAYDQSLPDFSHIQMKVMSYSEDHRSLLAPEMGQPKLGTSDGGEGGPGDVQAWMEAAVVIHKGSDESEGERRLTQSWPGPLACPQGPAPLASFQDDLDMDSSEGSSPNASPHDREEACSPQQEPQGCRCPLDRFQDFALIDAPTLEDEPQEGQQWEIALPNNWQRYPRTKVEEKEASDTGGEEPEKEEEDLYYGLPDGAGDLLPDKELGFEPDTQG
The test is described as follows: NFA modulation of F256A CLC-Ka currents, voltage clamp in Xenopus oocytes. It counts as cell-based.

Test [2] has as its target T2, F256A CLC-K1 (Rattus norvegicus, UniProt Q06393, F256A).
T2 sequence (Q06393 1-687 F256A): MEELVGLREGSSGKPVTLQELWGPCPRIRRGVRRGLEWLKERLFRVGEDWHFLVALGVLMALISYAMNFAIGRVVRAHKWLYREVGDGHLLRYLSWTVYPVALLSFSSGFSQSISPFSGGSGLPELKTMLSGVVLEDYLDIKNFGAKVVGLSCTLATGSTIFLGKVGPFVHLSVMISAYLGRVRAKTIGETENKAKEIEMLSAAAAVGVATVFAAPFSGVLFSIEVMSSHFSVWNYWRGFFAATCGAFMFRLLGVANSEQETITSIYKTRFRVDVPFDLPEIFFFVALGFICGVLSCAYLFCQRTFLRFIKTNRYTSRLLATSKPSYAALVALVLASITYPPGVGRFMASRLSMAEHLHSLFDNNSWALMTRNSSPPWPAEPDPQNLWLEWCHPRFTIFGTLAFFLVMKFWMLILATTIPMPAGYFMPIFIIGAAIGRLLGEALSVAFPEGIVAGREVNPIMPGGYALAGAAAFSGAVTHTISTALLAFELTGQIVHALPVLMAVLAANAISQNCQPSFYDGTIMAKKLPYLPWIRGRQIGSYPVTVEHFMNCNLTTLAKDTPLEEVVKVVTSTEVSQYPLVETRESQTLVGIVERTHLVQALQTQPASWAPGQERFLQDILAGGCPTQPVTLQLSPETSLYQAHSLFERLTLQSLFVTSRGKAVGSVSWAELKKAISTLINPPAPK
The test is described as follows: NFA effect on F256A CLC-K1 without barttin, voltage clamp in Xenopus oocytes. It counts as cell-based. Particulars: expressed without barttin.

The test system of test [3] is rat CLC-K1. Particulars: all concentrations tested; cited from earlier work.
Test [4] deals with T3, N257A CLC-Ka (Homo sapiens, UniProt P51800, N257A).
T3 sequence (P51800 1-687 N257A): T1 sequence (P51800 1-687 F256A) with A256F, N257A
T3 sequence (Q8WZ55 1-320 Y98A partner): T1 sequence (Q8WZ55 1-320 Y98A partner)
It counts as cell-based. Particulars: 4 μM NFAext in the presence of 100 μM CPAint; −100 mV and 60 mV.

Substitutions are numbered along the chain they refer to.

Turning to `O=C(O)c1cccnc1Nc1cccc(C(F)(F)F)c1` [NFA, niflumic acid], in test [1] (2 μM NFA), the potentiation of currents entry is recorded as “two-fold”. The current increase in test [1] (200 μM NFA, F256A CLC-Ka in Xenopus oocytes) is listed as ~ 25 fold. The “effect of NFA on currents” value is “potentiated” in test [1] (all concentrations tested, from 1 to 2000 μM) and “no potentiation” in test [2]. The “maximal stimulation (potentiation) of currents” value in test [1] (at 500 μM NFA, currents at 60 mV normalized to 0 NFA) is on record as 37 fold. In test [3], the “effect on rat CLC-K1” value is “blocked”. Also, the “effect of NFA on single channel conductance” value in test [4] is on record as “does not affect the conductance”.
